Results from patent publication US12678507B2, “Protein tyrosine kinase 6 (PTK6) degradation / disruption compounds and methods of use” (Icahn School of Medicine at Mount Sinai, priority 2018, dated 2026).

Columns and labels:
[1] = system: CP70 cells; assay: 3D culture viability of platinum resistant ovarian cancer cells CP70; assay type: cell-based; settings: 2 uM, 6 days, 3D culture (FIG. 8)
Description: FIG. 8. Treatment with PTK6 degraders, but not kinase activity inhibitor, suppress viability of chemotherapy-resistant ovarian cancer cells (CP70). Cells were seeded into 3D Matrigel cultures and treated with compounds (2 uM) for 6 days. Viability was assessed using 3D Cell Titre glo assay (Promega)
Platinum resistant ovarian cancer cells CP70 were treated with PTK6 degrader or kinase inhibitor P21d (2 uM) for 6 days in 3D culture. Viability after 6 days was assessed by 3D Cell Titer glo.

[2] = system: MDA-MB231 cells; assay: 3D Matrigel culture of MDA-MB231 triple negative breast cancer cells (growth, invasive branching, viability); assay type: cell-based; settings: 1 μM, 3 days, 3D cultures (FIG. 6)
Description: FIG. 6a. PTK6 degraders, but not kinase activity inhibitor suppress viability in 3D cultures. MDA-MB231 triple negative breast cancer cells were seeded into 3D Matrigel cultures (4×10^3 cells/well) and treated with indicated PTK6 degraders, negative control compounds or PTK6 kinase activity inhibitor at 1 uM for 5 days with re-feeding of compound after 3 days in culture. Viability was assessed using 3D Cell Titer glo (Promega). FIG. 6b. Expression of PTK6 in cells treated with PTK6 degraders, negative control compounds or PTK6 kinase activity inhibitor was assessed after 24 hour treatment in monolayer cultures with 1 uM of compound. Cells were lysed and proteins were resolved and probed with anti-PTK6 antibody (Cell Signaling)
FIG. 12a. […] Expression of PTK6 in cells treated with PTK6 degraders, negative control compounds or PTK6 kinase activity inhibitor was assessed after 24 hour treatment in monolayer cultures with 1 uM of compound. […] Viability was assessed using 3D Cell Titer glo (Promega). […]
MDA-MB231 triple negative breast cancer cells were seeded into 3D Matrigel cultures (4×10^3 cells/well) and treated with indicated PTK6 degraders, negative control compounds or PTK6 kinase activity inhibitor at 1 uM for 6 days with re-feeding of compound after 3 days in culture (FIG. 12B). Viability was assessed using 3D Cell Titer glo (Promega). […]

[3] = system: MCF7 cells; assay: 3D Cell Titer Glo viability of MCF7 ER+ breast cancer cells; assay type: cell-based; settings: 0, 1, 2 and 5 μM, 4 days, 3D Cell Titer Glo (FIG. 7)
Description: FIG. 7a. PTK6 degrader treatment suppresses growth of ER+ breast cancer cells. ER+ breast cancer cells (MCF-7) were treated with indicated concentrations of top candidate degraders, negative control compounds or PTK6 kinase activity inhibitor for 24 hours, lysed and proteins were resolved by SDS-PAGE. PTK6 expression was interrogated by Western analysis. FIG. 7b. MCF-7 cells were seeded into 3D Matrigel cultures and treated with indicated PTK6 degraders or PTK6 kinase inhibitor for 4 days. Viability was quantified using 3-D Cell Titer glo (Promega).
MCF7 cells were treated with YX39-103, YX39-105, and compound 21d at 0, 1, 2 and 5 μM for 4 days using 3D Cell Titer Glo (Promega) assay conditions.
MDA-MB231, MCF-7, OV2008 and Hey C2 cells (3,000 cells) were added to 8-well chamber slides (BD Biosciences) coated with 50 μl of growth factor-reduced Matrigel™ Matrix basement membrane (Corning). Treatment with degrader was begun later the same day. Media was replaced every 3 days. Cells were imaged using the Axiovert 25 inverted microscope (Carl Zeiss AB). CellTiter-Glo 3D Cell Viability Assay (Promega) was used to quantitate viability of cells grown in Matrigel™ in 96-well plates.

[4] = target: T1, PTK6 (Homo sapiens, UniProt Q13882); assay: Western blot of PTK6 protein levels in MDA-MB231 cells; assay type: cell-based; settings: MDA-231 (MDA-MB231) cells, 500 nM, 24 hours, Western blot (FIGS. 3-5)
T1 construct: endogenous in cells; host or cells: MDA-MB231 cells (ATCC)
T1 sequence (Q13882 whole entry): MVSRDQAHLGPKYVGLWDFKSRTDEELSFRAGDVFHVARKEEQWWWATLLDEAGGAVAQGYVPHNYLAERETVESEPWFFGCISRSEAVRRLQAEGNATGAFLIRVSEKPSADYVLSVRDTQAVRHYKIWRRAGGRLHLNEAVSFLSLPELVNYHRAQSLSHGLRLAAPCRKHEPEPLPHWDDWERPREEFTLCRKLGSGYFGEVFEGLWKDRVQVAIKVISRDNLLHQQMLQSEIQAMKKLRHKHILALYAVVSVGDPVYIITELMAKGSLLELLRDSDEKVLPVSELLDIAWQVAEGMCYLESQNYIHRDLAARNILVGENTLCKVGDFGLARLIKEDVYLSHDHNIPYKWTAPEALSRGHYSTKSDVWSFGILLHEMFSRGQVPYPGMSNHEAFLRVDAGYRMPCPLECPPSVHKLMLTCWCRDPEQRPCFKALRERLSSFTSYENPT
Description: FIGS. 2-5. Effects of exemplary compounds on reducing PTK6 protein levels in breast cancer cells. Triple negative MDA-MB231 cells were treated for 24 hours with 500 nM, 2 uM or 2.5 uM of test compound and lysed. Proteins were resolved by SDS/PAGE and immunoblotted with antibody to PTK6 (Santa Cruz, Cell Signaling) or GAPDH loading control (Cell Signaling).
FIG. 13. PTK6 degraders suppress PTK6 expression. MDA-MB231 cells were treated with compounds (500 nM or 1 uM) for 24 hours in monolayer cultures. Cells were lysed and lysates were probed with anti-PTK6 antibody.
MDA-MB231 cells were treated with DMSO or indicated compounds at 2.5 uM, 2 uM or 500 nM for 24 hours.
MDA-MB231 cells were treated with compounds (500 nM or 1 uM) for 24 hours in monolayer cultures. Cells were lysed and lysates were probed with anti-PTK6 antibody.
(§1) Cells were lysed in 1% NP-40 lysis buffer containing NaF, Na3VO4, Leupeptin, PMSF, aprotinin, and phosphatase inhibitor (PhosSTOP, Roche) as described previously (Irie et al., 2010). Cleared cell lysates were stored at −80° C. and were analyzed by western analysis as described previously (Irie et al., 2010).

[5] = compared with shRNA, all cell lines evaluated; cited from earlier work
[6] = system: TNBC cells; settings: compared with PTK6 shRNA; cited from earlier work
[7] = target: T1, PTK6; assay: PTK6 degradation after MG132 proteasome inhibitor pretreatment (Western); assay type: cell-based; settings: MDA-MB231 cells, MG132 10 uM 2 hours, then degrader 4 hours (FIG. 9)
Description: FIG. 9. PTK6 degrader suppresses PTK6 expression in a proteasome-dependent manner. MDA-MB231 cells (left) or OV2008 cells (right) were pre-treated with DMSO or MG-132 (10 uM) for two hours, then treated for an additional 4 hours with DMSO or PTK6 degrader at the indicated concentrations.
MDA-MB231 cells were pre-treated with MG132 (10 uM) or DMSO for 2 hours, then treated for additional 4 hours with PTK6 degrader YX39-105 or DMSO. Cells were lysed and expression of PTK6 was assessed by Western analysis.
as §1

[8] = target: T1, PTK6; assay: PTK6 degradation after PTK6 kinase inhibitor P21d pretreatment (Western); assay type: cell-based; settings: MDA-MB231 cells, P21d 5 uM 2 hours, then degrader 24 hours (FIG. 10)
Description: FIG. 10. PTK6 kinase activity inhibitor pre-treatment prevents PTK6 degrader-dependent suppression of PTK6 expression. MDA-MB231 cells in monolayer cultures were pre-treated with DMSO or PTK6 kinase activity inhibitor (5 uM), then treated for an additional 24 hours with PTK6 degrader, YX39-105. Cells were lysed and expression of PTK6 was assessed by Western analysis.
MDA-MB231 cells pretreated with DMSO or PTK6 kinase activity inhibitor, P21d, (5 uM) for 2 hours were subsequently treated with PTK6 degrader YX39-105 for 24 hours. Expression of PTK6 was assessed by Western analysis.
as §1

Cc1ncsc1-c1ccc(CNC(=O)[C@@H]2C[C@@H](O)CN2C(=O)[C@@H](NC(=O)CCCCCCNC(=O)CN2CCN(C(=O)c3ccc(Nc4nc(C5CC5)cn5c(-c6cn[nH]c6)cnc45)c(F)c3)CC2)C(C)(C)C)cc1 [YX39-103, (2S,4R)-1-((S)-2-(7-(2-(4-(4-((6-cyclopropyl-3-(1H-pyrazol-4-yl)imidazo[1,2-a]pyrazin-8-yl)amino)-3-fluorobenzoyl)piperazin-1-yl)acetamido)heptanamido)-3,3-dimethylbutanoyl)-4-hydroxy-N-(4-(4-methylthiazol-5-yl)benzyl)pyrrolidine-2-carboxamide]
viability of chemotherapy-resistant ovarian cells (CP70) [1]: Suppressed Viability
growth and invasive branching in 3D cultures [2]: significantly suppressed growth and invasive branching
viability of MCF7 cells [3]: significantly impaired viability of MCF7 cells in a dose-dependent manner
reducing PTK6 protein levels / suppress PTK6 expression [4]: effective in reducing PTK6 protein levels

O=C(c1ccc(Nc2nc(C3CC3)cn3c(-c4cn[nH]c4)cnc23)c(F)c1)N1CCOCC1 [compound 21d]
3D growth [5]: did not consistently phenocopy the effects of shRNA
EMT regulation of TNBC cells [6]: phenocopied the effects of PTK6 shRNA

Cc1ncsc1-c1ccc(CNC(=O)[C@@H]2C[C@@H](O)CN2C(=O)[C@@H](NC(=O)CCCCCCCCNC(=O)CN2CCN(C(=O)c3ccc(Nc4nc(C5CC5)cn5c(-c6cn[nH]c6)cnc45)c(F)c3)CC2)C(C)(C)C)cc1 [YX39-105, (2S,4R)-1-((S)-2-(9-(2-(4-(4-((6-cyclopropyl-3-(1H-pyrazol-4-yl)imidazo[1,2-a]pyrazin-8-yl)amino)-3-fluorobenzoyl)piperazin-1-yl)acetamido)nonanamido)-3,3-dimethylbutanoyl)-4-hydroxy-N-(4-(4-methylthiazol-5-yl)benzyl)pyrrolidine-2-carboxamide]
viability of chemotherapy-resistant ovarian cells (CP70) [1]: Suppressed Viability
growth and invasive branching in 3D cultures [2]: significantly suppressed growth and invasive branching
viability of MCF7 cells [3]: significantly impaired viability of MCF7 cells in a dose-dependent manner
PTK6 degradation with MG132 pretreatment [7]: Prevents PTK6 from being Degraded
reducing PTK6 protein levels / suppress PTK6 expression [4]: effective in reducing PTK6 protein levels
PTK6 degradation with PTK6 inhibitor pretreatment [8]: Prevents PTK6 from being Degraded
